Reference: patent US9120762B2, “Salts of bicyclo-substituted pyrazolon azo derivatives, preparation method and use thereof” (Jiangsu Hengrui Medicine Co., Ltd., priority 2009, dated 2015)
Like-named read-outs stand apart in the source and are kept apart here.

What was measured:
[1] = biological target: T1, human TPOR (Homo sapiens, UniProt P40238); assay: Proliferation effect on BAF3-TPOR cell (CCK-8); type: cell-based; details: rate relative to rhTPO positive control
T1 construct: host or cells: BaF3 (murine pro-B cells), stably transfected, G418-selected
T1 sequence (P40238 26-635): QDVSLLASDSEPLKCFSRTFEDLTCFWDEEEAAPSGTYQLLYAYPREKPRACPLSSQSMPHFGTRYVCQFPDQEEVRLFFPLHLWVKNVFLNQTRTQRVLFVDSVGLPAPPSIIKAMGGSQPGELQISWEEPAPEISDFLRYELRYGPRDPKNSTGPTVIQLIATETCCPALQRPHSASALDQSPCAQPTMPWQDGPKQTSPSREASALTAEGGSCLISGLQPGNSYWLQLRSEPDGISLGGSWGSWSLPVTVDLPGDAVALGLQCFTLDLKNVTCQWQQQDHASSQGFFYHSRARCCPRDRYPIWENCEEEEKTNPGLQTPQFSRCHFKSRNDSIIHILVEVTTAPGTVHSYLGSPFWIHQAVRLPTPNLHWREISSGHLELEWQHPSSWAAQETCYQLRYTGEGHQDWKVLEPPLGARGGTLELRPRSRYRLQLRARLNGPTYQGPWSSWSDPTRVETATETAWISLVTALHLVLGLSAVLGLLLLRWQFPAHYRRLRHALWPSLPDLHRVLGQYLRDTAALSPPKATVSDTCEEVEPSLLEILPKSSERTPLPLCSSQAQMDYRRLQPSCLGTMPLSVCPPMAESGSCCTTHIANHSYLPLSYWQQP
Description: (1) Plasmid constructs: based on the TPO receptor (TPOR) sequence information from Entrez (Gene ID: 4325, Refseq: NM_005373), dual-site mutation was performed on EX-B0010-M02 plasmid by using QuikChange® Multi Site Directed Mutagenesis Kit (Stratagene). The sequence of primers containing multi-sites mutation was designed as follows: […]
The E. coli DH5α competent cells were transformed with mutated plasmid, and positive colonies were picked up through ampicillin selection. The mutation result was confirmed by sequence analysis.
(2) BAF3-TPOR stable transfected cell line: the following method was used to construct the BaF3 cell which stably over-expressed functional human TPOR. The successfully mutated EX-B0010-M02 plasmid ([…]) which expressed human TPOR and screening gene neomycin was transfected into wild-type BaF3 cells (1×10^7) by electroporation at 250V for 18 ms using an electric pulse generator (Electro Square Porator ECM830, BTX Division of Genetronic, Inc. US). The stable transfected cells BAF3-TPOR were selected with G418 (Gibco, US), then incubated in RPMI1640 medium plus 10% FBS (Gibco, US), […] G418, 5 ng/mL, rmIL-3 (Chemicon, US).
(1) Washing cells by centrifugation: a suitable amount of cell suspension was centrifuged at 1000 rpm for 5 minutes, and the supernatant was discarded. 10 mL of cell culture media without IL-3 was added. Then the resulting cell suspension was centrifuged at 1000 rpm for 5 minutes, and the supernatant was discarded.
(2) 1 mL of cell culture media without IL-3 was added to beat upon them to equality, and the number of a suitable amount of cell suspension was counted after dilution.
(3) According to the result of the cell counting, a cell suspension in a concentration of 100,000 cell/mL was prepared.
(4) 100 μL of cell suspension was transferred to each well of 96-well culture plate, and there were 3 parallel wells, that is, there were a blank control group (B), a negative control group (N), a positive control group of TPO (P) and a test compound group (S).
(5) The test compound was dissolved in DMSO to prepare a 10 mM stock solution, and then the solution was diluted with RPMI 1640 medium into a series of test samples at different concentration: 30 μM, 10 μM, 3 μM, 1 μM, 0.3 μM, 0.1 μM, 0.03 μM, 0.01 μM, 0.003 μM, 0.001 μM.
(6) 10 μL of test compound solution was transferred to each well respectively; 1 μL of rhTPO (10 ng/mL) was added to positive control well.
(7) The plates were incubated in an incubator at 5% CO2 and 37° C. for 24 hours.
(8) After incubation, 10 μL of CCK-8 solution was added to each well and the plates were incubated in the incubator for another 24 hours.
(9) OD value was detected at 450 nm by VICTORS (Perkin Elmer 1420-120) plate reader.
(1) The proliferation rate was calculated as follows: Rate=[(S−B)/(P−B)]*100%
S: OD value of wells which contain test compound.
B: OD value of blank control wells
P: OD value of positive control wells
(2) The EC50 value was calculated by Origin 7.0 software.

[2] = Pharmacokinetics assay in rats; type: in vivo, SD rats; details: 50 mg/kg, SD rats, intragastric, 50 mg/Kg (as free acid); for Vd/F / AUC / CL/F / half-life / MRT / Cmax / Tmax: both sexes, SD, rat, plasma, po; for Vd/F: read-out: Apparent Distribution Volume Vz/F; for AUC: read-out: Area Under Curve AUC; for CL/F: read-out: Clearance CL/F (converted); for half-life: read-out: Half-Life t½ (converted); for MRT: read-out: Mean Residence Time MRT; for Cmax: read-out: Plasma Conc. Cmax; for Tmax: read-out: Time to peak Tmax
Description: The compounds of the present disclosure were administrated intragastrically to rats to determine the drug concentration in plasma at different time points by HPLC-UV. The pharmacokinetic behavior of the compounds of the present disclosure was studied and evaluated in rats. […] Healthy adult SD rats, male and female in half, were purchased from SINO-BRITSH SIPPR/BK LAB.ANIMAL LTD., Colo., License number: SCXK (Shanghai) 2003-0002 The test compound was diluted with 1% sodium carboxymethyl cellulose to 5 mg/mL (calculated as the free acid form) of suspension before use. Healthy adult SD rats, male and female in half, were divided into 23 groups. […] The plasma samples were stored at −20° C. until analysis. The rats were fed 2 hours after administration. […] Then the mixture was mixed for 3 minute using a vortexer and centrifuged for 10 minutes at 13,500 rpm. 40 μL of the supernatant was analyzed by HPLC-UV. The compartmental model of pharmacokinetics was fitted for the test compounds and the major pharmacokinetic parameters were calculated in which Cmax and tmax were the actually measured values.

[3] = Solubility assay in water, 0.1% hydrochloric acid and methanol; type: physicochemical; details: read-out: solubility
Description: The solubility was characterized by:
The term “very soluble” refers to that 1 g (mL) of solute can be dissolved in less than 1 mL of solvent;
The term “freely soluble” refers to that 1 g (mL) of solute can be dissolved in from 1 mL to 10 mL, not including 10 mL of solvent;
The term “soluble” refers to that 1 g (mL) of solute can be dissolved in from 10 mL to 30 mL, not including 30 mL of solvent;
The term “sparingly soluble” refers to that 1g (mL) of solute can be dissolved in from 30 mL to 100 mL, not including 100 mL of solvent;
The term “slightly soluble” refers to that 1g (mL) of solute can be dissolved in from 100 mL to 1000 mL, not including 1000 mL of solvent;
The term “very slightly soluble” refers to that 1g (mL) of solute can be dissolved in from 1000 mL to 10000 mL, not including 10000 mL of solvent;
The term “practically insoluble or insoluble” refers to that 1g (mL) of solute cannot be dissolved completely in 10000 mL of solvent.

Row | Structure (SMILES) | EC50 [1] | Vd/F [2] | AUC [2] | CL/F [2] | half-life [2] | MRT [2] | Cmax [2] | Tmax [2] | solubility ([3]; 0.1% hydrochloric acid, simulated gastric fluid, 0.1% hydrochloric acid) | solubility ([3]; methanol, organic solvent or mixture, methanol) | solubility ([3]; water) | Area Under Curve AUC [2] | Clearance CL/F [2] | Half-Life t½ [2] | Mean Residence Time MRT [2] | Plasma Conc. Cmax [2] | Time to peak Tmax [2]
1 | CC1=NN(c2ccc3c(c2)CCC3)C(=O)/C1=N\Nc1cccc(-c2cccc(C(=O)O)c2)c1O.NCCO.NCCO [Example 1, (Z)-2′-hydroxy-3′-[N′-(1-indan-5-yl-3-methyl-5-oxo-1,5-dihydro-pyrazol-4-ylidene)-hydrazino]-biphenyl-3-carboxylic acid bis-(ethanolamine)] | 150 nM | 0.45 ± 0.32 L/kg | 501 ± 178 µg·h/mL | 1.63 mL/min/kg | 5.39 ± 0.94 h | 4.96 ± 1.16 h | 90100 ± 35300 ng/mL | 3.25 ± 1.5 h | < 1 µg/mL | 1470 µg/mL | 3 µg/mL |  |  |  |  |  | 
2 | CC1=NN(c2ccc3c(c2)C(C)(C)CC3)C(=O)/C1=N\Nc1cccc(-c2ccc(C(=O)O)o2)c1O [Example 5, (Z)-5-(3-{N′-[1-(3,3-dimethyl-indan-5-yl)-3-methyl-5-oxo-1,5-dihydro-pyrazol-4-ylidene]-hydrazino}-2-hydroxy-phenyl)-furan-2-carboxylic acid bis-(diethylamine)] | 19 nM |  |  |  |  |  |  |  |  |  |  | 255 ± 95 µg·h/mL | 3.67 ± 1.2 mL/min/kg | 15.0 ± 6.2 h | 20.8 ± 9.1 h | 19800 ± 3800 ng/mL | 3.25 ± 1.5 h
3 | CC1=NN(c2ccc3c(c2)CCCC3)C(=O)/C1=N\Nc1cccc(-c2ccc(C(=O)O)o2)c1O [Example 9, (Z)-5-(2-hydroxy-3-{N′-[3-methyl-5-oxo-1-(5,6,7,8-tetrahydro-naphthalen-2-yl)-1,5-dihydro-pyrazol-4-ylidene]-hydrazino}-phenyl)-furan-2-carboxylic acid bis-(diethylamine)] | 14 nM |  |  |  |  |  |  |  |  |  |  | 146 ± 69.7 µg·h/mL | 6.52 ± 2.42 mL/min/kg | 9.65 ± 2.48 h |  | 21200 ± 10400 ng/mL | 2.88 ± 2.59 h
4 | CC1=NN(c2ccc3c(c2)CCCC3)C(=O)/C1=N\Nc1cccc(-c2ccc(C(=O)O)o2)c1O [Example 13, (Z)-5-(2-hydroxy-3-{N′-[3-methyl-5-oxo-1-(5,6,7,8-tetrahydro-naphthalen-2-yl)-1,5-dihydro-pyrazol-4-ylidene]-hydrazino}-phenyl)-furan-2-carboxylic acid bis-(dibenzylethylenediamine)] | 20 nM |  |  |  |  |  |  |  |  |  |  | 42.8 ± 33.2 µg·h/mL | 27.2 ± 13.8 mL/min/kg | 5.70 ± 2.50 h |  | 8100 ± 3350 ng/mL | 1.38 ± 1.11 h
5 | CC1=NN(c2ccc3c(c2)CCCC3)C(=O)/C1=N\Nc1cccc(-c2ccc(C(=O)O)o2)c1O [Example 15, (Z)-5-(2-hydroxy-3-{N′-[3-methyl-5-oxo-1-(5,6,7,8-tetrahydro-naphthalen-2-yl)-1,5-dihydro-pyrazol-4-ylidene]-hydrazino}-phenyl)-furan-2-carboxylic acid bis-(L-arginine)] | 16 nM |  |  |  |  |  |  |  |  |  |  | 168 ± 118 µg·h/mL | 12.6 ± 16.6 mL/min/kg | 6.56 ± 3.80 h |  | 23300 ± 13600 ng/mL | 2.0 ± 1.16 h
6 | CC1=NN(c2ccc3c(c2)CCCC3)C(=O)/C1=N\Nc1cccc(-c2coc(C(=O)O)c2)c1O.NCCO.NCCO [Example 22, (Z)-4-(2-Hydroxy-3-{N′-[3-methyl-5-oxo-1-(5,6,7,8-tetrahydro-naphthal-2-yl)-1,5-dihydro-pyrazol-4-ylidene]-hydrazino}-phenyl)-furan-2-carboxylic acid bis-(ethanolamine)] | 39 nM | 3.41 ± 1.75 L/kg | 603 ± 240 µg·h/mL | 4 mL/min/kg | 9.95 ± 0.6 h | 14.8 ± 1 h | 39800 ± 18200 ng/mL | 5 ± 2 h |  |  |  |  |  |  |  |  | 
7 | CC1=NN(c2ccc3c(c2)CCCC3)C(=O)/C1=N\Nc1cccc(-c2coc(C(=O)O)c2)c1O [Example 22f, (Z)-4-(2-hydroxy-3-{N′-[3-methyl-5-oxo-1-(5,6,7,8-tetrahydro-naphthal-2-yl)-1,5-dihydro-pyrazol-4-ylidene]-hydrazino}-phenyl)-furan-2-carboxylic acid] | 42 nM | 8.49 ± 2.16 L/kg | 151 ± 97 µg·h/mL | 11.5 mL/min/kg | 9.21 ± 1.57 h | 11.8 ± 4.5 h | 8730 ± 2580 ng/mL | 4.25 ± 1.26 h |  |  |  |  |  |  |  |  | 
